The values below come from patent publication US6565876B1, “Carnitine and inositol phosphate-containing composition useful as dietary supplement or drug” (Sigma-Tau HealthScience S.p.A., priority 1999, dated 2003).

Test [1] concerns platelets from healthy volunteers. The experiment in a line: Anti-platelet aggregation activity (collagen-induced, Born method). Type of test: cell-based, human. The note with it: collagen 2.5 and 5 ng/mL, 10 min incubation, IP6 4 and 8 ng/mL. How it is done:
The anti-platelet-aggregation activity of the composition according to the invention was assessed in blood samples from healthy volunteers. […] The aggregating agent used was collagen (2.5 ng/mL, 5 ng/mL) and the aggregation induced was measured photometrically according to the method described by Born (Born G. V., Nature, 194:927, 1962). […] The doses of propionyl L-carnitine used were 10 ng and 20 ng/mL, while the IP6 doses were 4 ng and 8 ng/mL.

Test [2] deals with swimming endurance in forced swimming. The experiment in a line: Swimming endurance test. Type of test: in vivo, mice. The note with it: propionyl L-carnitine 200 mg/kg, IP6 100 mg/kg, oral on the three days preceding the test. How it is done: Since IP6, which is rich in phosphate groups, is a useful energy reserve, a series of tests were performed to establish whether its administration may increase the swimming endurance time in mice submitted to forced swimming in a rectangular tank full of water, according to the technique described by Zheng (Zheng R. L., Acta Pharmacol. Sinica, 14:47, 1993) and whether its effect could be enhanced by using it in combination with a carnitine, such as, for instance, propionyl L-carnitine. The tests were performed on various groups of animals treated with propionyl L-carnitine (200 mg/kg) or with IP6 (100 mg/kg) alone or with the two compounds in combination. The compounds were administered orally on the three days preceding the test. In the animals thus treated, swimming endurance time was measured as compared to control animals.

For test [3], the system named is collagen-induced type II arthritis. The experiment in a line: Collagen-induced arthritis test. Type of test: in vivo. The note with it: mice; 200 mg/kg each, oral, from day of collagen injection to end of sixth week; oedema scores 1 to 4. How it is done: Confirmation of the anti-inflammatory effects of the composition according to the invention was obtained using as a test collagen-induced type II arthritis according to the technique described by […]. Exp. Med., 146:857, 1977). In this test, a group of mice were immunised by intradermal injection at the base of the tail of 100 μg of natural collagen emulsified in Freund complete adjuvant (Difco Labs., Detroit, USA). After three weeks, the animals thus treated were again injected intraperitoneally with the same dose of emulsified collagen. The treatment with propionyl […] (200 mg/kg) or with inositol hexaphosphate (200 mg/kg) or with the two compounds in combination was administered orally from the day of collagen injection up to the end of the sixth week. One group of animals received no treatment and served as a control group. The intensity of the oedema was assessed by assigning scores from 1 to 4.

The test system of the next test is ornithine decarboxylase. The test is described as follows: Antiproliferative activity, teleocidin-induced ornithine decarboxylase in epidermis. Type of test: in vivo, mice.
In test [4] the test system is muscle lipoperoxidation (malondialdehyde). The experiment in a line: Muscle fatigue test, forced muscular exercise on moving belt, MDA in gastrocnemius muscle. Type of test: in vivo, rats. The note with it: propionyl L-carnitine 200 mg/kg, IP6 100 mg/kg, three days before exercise; for MDA content in muscle after 5 min: gastrocnemius muscle 5 min after end of exercise; for MDA content in muscle after 30 min: gastrocnemius muscle 30 min after end of exercise. On the procedure:
Forced muscular exercise was tested in various groups of rats by making them run on a moving belt at controlled speed and angle of tilt, as described by Li (Li J. X., Acta Pharmacologica Sinica, 20:126, 1999) and Husain (Husain K., Pathophysiology, 4:69, 1997). The animals were made to run on an approximately 5° slope and at a belt speed of 28 m/min. The animals' stamina reached the point of exhaustion after approximately 85 min of exercise. The test was carried out in groups of animals which, during the three days preceding exercise, received 200 mg/kg of propionyl L-carnitine or 100 mg/kg of IP6 alone or in combination. Five and thirty minutes, respectively, after the end of exercise, samples of gastrocnemius muscle were taken from the sacrificed animals and used for measuring the malondialdehyde (MDA) content as a marker for the level of lipoperoxidation by means of reaction with thiobarbituric acid according to the method described by Ohkawa (Ohkawa H., Anal. Biochem., 95:351, 1979).

Test [5] deals with atherosclerotic vascular lesions of the abdominal aorta. The experiment in a line: Anti-atherosclerotic activity, atherogenic diet. Type of test: in vivo, male Wistar rats. The note with it: rats; atherogenic diet six weeks; daily 150 mg/kg propionyl carnitine, 100 mg/kg IP6. How it is done:
[…] according to the regimen proposed by Melinow (Melinow M. R., Atherosclerosis, 48:105, 1983). At the end of the sixth week of treatment, marked atherosclerotic vascular lesions had formed which were particularly pronounced at the abdominal aorta level. The severity of these lesions was evaluated by a morphometric method, measuring the thickness of the abdominal aorta and the intensity of the staining induced by Sudan IV with a progressive scoring system from 1 to 5. In these tests, the rats received daily administrations of 150 mg/kg of propionyl carnitine and 100 mg/kg of IP6, together with their atherogenic diets.

The subject of a further test is chick cerebral neurons. The test is described as follows: Neuronal hypoxia, NaCN-induced, ATP assay. Type of test: cell-based. To be noted: propionyl L-carnitine 100 mg/L, IP6 50 mg/L; for ATP after reoxygenation time 0 / ATP after reoxygenation time 30 min: NaCN 1 mmol/L for 120 min; for ATP after reoxygenation time 0: reoxygenation 0; for ATP after reoxygenation time 30 min: reoxygenation 30 min. How it is done:
To assess the protective activity of the composition according to the invention on hypoxia-induced damage at the neuronal level, tests were performed on cultures of chick cerebral neurons in which the reduction in cell respiration was induced by introducing NaCN into the cultures. […] The chick cerebral neuron cultures were prepared according to the technique described by […]., Nature, 281:378, 1979). Cytotoxic hypoxia was induced by adding NaCN to the culture medium to a final concentration of 1 mmol/L. After 120 min the medium was replaced by an NaCN-free medium, and the metabolism of the cells was blocked by washing with an iced buffer solution. The ATP assay was performed according to the procedure described by Werner (Werner A. J., Chromatogr. Biomed. Appl., 421:257, 1987).

Test [6] concerns carrageenin-induced oedema of the rat paw. The experiment in a line: Carrageenin oedema test. Type of test: in vivo. To be noted: 250 mg/kg each, oral. How it is done:
To assess the anti-inflammatory effect of the new composition the carrageenin oedema test was used, in which rat paws are injected with carrageenin. The injection of 0.1 mL of 1% carrageenin solution (Sigma Chemical, St. Louis, Mo., USA) in the subplantar area of the rat's right paw induced marked oedema of the paw which reached its maximum intensity 4-5 hours after injection. The oedema was measured by mercury plethysmography at various different time intervals up to the fourth hour after carrageenin injection. Both propionyl L-carnitine (250 mg/kg) and IP6 (250 mg/kg) were administered orally half an hour prior to the subplantar carrageenin injection.

The mark [7] stands for this setting: mouse epidermis 5 h after teleocidin 5 μg/mouse s.c., oral pretreatment propionyl L-carnitine 200 mg/kg, IP6 100 mg/kg.
Setting [8] is: rat paw oedema, half an hour before carrageenin.

Take `O=P(O)(O)O[C@H]1[C@H](OP(=O)(O)O)[C@@H](OP(=O)(O)O)[C@H](OP(=O)(O)O)[C@@H](OP(=O)(O)O)[C@H]1OP(=O)(O)O` [IP6, inositol hexaphosphate]: in test [1], the “aggregating action of collagen, reduced to” value is listed as 40%. Also, in test [2], the “Swimming time” value turned out to be 136 ± 16 min and the “mean swimming endurance time versus controls (in words)” value was “slightly increased”. Moreover, the oedema inhibition result in test [3] is recorded as “approximately 20%”. The Ornithine decarboxylase activity in the test with ornithine decarboxylase (setting [7]) is listed as 1.95 ± 0.2 nMol of CO2/60 min/mg protein. Further, in the test on ornithine decarboxylase (oral pretreatment propionyl L-carnitine 200 mg/kg, IP6 100 mg/kg), the “reduction of the teleocidin-induced increase in ornithine decarboxylase activity (in words)” value was “significantly reduced”. Moreover, in test [4], the “MDA content in muscle after 5 min” value is 200 ± 16 nmol/g (WW), the “MDA content in muscle after 30 min” value was 205 ± 8 nmol/g (WW) and the “muscle lipoperoxidation in muscle homogenate (in words)” value is reported as “capable of reducing the levels of muscle lipoperoxidation”. Besides, the “protective effect against atherosclerotic lesions (morphometric examination and Sudan IV staining)” value in test [5] is recorded as “only a slight protective effect”. For the same compound, in the test with chick cerebral neurons, the “ATP after reoxygenation time 0” value is on record as 12.4 ± 2.1 nmol g protein and the “ATP after reoxygenation time 30 min” value is reported as 16.9 ± 1.9 nmol g protein. The “ATP levels after anoxia and reoxygenation (in words)” value with chick cerebral neurons (NaCN 1 mmol/L) is on record as “a lesser reduction of ATP levels is observed as well as more rapid restoration of ATP levels”. Moreover, the “% inhibition after 1 h” value in test [6] (rat paw oedema, half an hour before carrageenin, 1 h) worked out at 15 ± 1.1%. In test [6] (setting [8]), the “% inhibition after 2 h” value is 20 ± 2.1% and the “% inhibition after 4 h” value is 15 ± 0.6%. In addition, in test [6] (rat), the “inhibitory action on the inflammatory reaction induced by carrageenin (in words)” value is “slight inhibitory action”.
Consider `CCC(=O)OC(CC(=O)[O-])C[N+](C)(C)C` [Propionyl L-carnitine, propionyl L-carnitine], for which, in test [1] (propionyl L-carnitine 10 and 20 ng/mL), the “inhibition of the aggregating action of collagen” value is listed as “does not inhibit”. In test [2], the “Swimming time” value worked out at 116 ± 19 min. In addition, in test [3], the oedema inhibition entry was “no inhibitory effect”. Also, in the test with ornithine decarboxylase (setting [7]), the Ornithine decarboxylase activity is recorded as 2.1 ± 0.2 nMol of CO2/60 min/mg protein. Besides, in test [4], the “MDA content in muscle after 5 min” value was 210 ± 10 nmol/g (WW) and the “MDA content in muscle after 30 min” value was 212 ± 14 nmol/g (WW). In the test on chick cerebral neurons, the “ATP after reoxygenation time 0” value worked out at 11.1 ± 1.6 nmol g protein and the “ATP after reoxygenation time 30 min” value was 16.3 ± 2.2 nmol g protein. In addition, in test [6] (setting [8]), the “% inhibition after 2 h” value is on record as 15 ± 0.3% and the “% inhibition after 4 h” value is 8 ± 0.9%.
On to teleocidin, for which the Ornithine decarboxylase activity with ornithine decarboxylase (mouse epidermis 5 h after teleocidin 5 μg/mouse s.c. alone, no pretreatment) is on record as 2.6 ± 0.4 nMol of CO2/60 min/mg protein.
